Source: US20120245104A1, “NOVEL RETRO-INVERSO LEPTIN PEPTIDE ANTAGONISTS” (priority 2011, published 2012)
Where a SMILES comes first, the peptide text is derived from it. Where no end group is shown, it is not given here. [ ]: non-standard residue; d: D form.

System: MCF-7 cells
Assay type: cell-based
Settings: not given
Text: These peptides were compared to full length LPA-1 with respect to their abilities to inhibit leptin-induced cell growth. […] The same approach was employed with LPA-2 creating […] of the leptin molecule). […] Another LPA-2 scrambled peptide that may be used is […] NO: 3]. […] Retro-inverso peptides are peptides constructed with the reverse sequence and containing all D-amino acids. […] Retro-inverso LPA-1(24-6) sequence […] NO: 31] and retro-inverso LPA-2(89-72) […] NO: 32]. […] Studies were carried out using both MCF-7 and HT-29 cells. […] MCF-7 and HT-29 cells were cultured in DMEM-F12 medium containing 5% fetal bovine serum (FBS), 5 μg/ml insulin, 1% amphopthericin B, 100 μg/ml streptomycin and 100 U/ml penicillin until they were 80% confluent. The cells were washed twice with 100 mM phosphate saline buffer (PBS), pH 7.2 and cultured for additional 2 days in the same medium but without FBS (basal medium). Cells were washed as described before and cultured in basal medium containing the leptin peptides of the present invention or controls as described above.

Row | Molecule | IC50 [nM]
1 | CC[C@@H](C)[C@@H](N)C(=O)N[C@H](CC(=O)O)C(=O)N[C@H](CC(N)=O)C(=O)N[C@@H](C(=O)N[C@H](CCCNC(=N)N)C(=O)N[C@@H](C(=O)N[C@@H](C(=O)N[C@@H](C(=O)N[C@@H](C(=O)N[C@H](CCCCN)C(=O)N[C@@H](C(=O)N[C@H](CC(C)C)C(=O)N[C@@H](C(=O)N[C@H](CCCCN)C(=O)N[C@@H](C(=O)N[C@H](CC(=O)O)C(=O)N[C@H](CC(=O)O)C(=O)N[C@H](CCC(N)=O)C(=O)N[C@@H](C(N)=O)C(C)C)[C@H](C)O)[C@H](C)O)[C@H](C)CC)[C@H](C)O)[C@H](C)CC)C(C)C)[C@H](C)O)[C@H](C)CC [D-T10(1), IDNIRTVITKILTKTDDQV] (H-[dI][dD][dN][dI][dR][dT][dV][dI][dT][dK][dI][dL][dT][dK][dT][dD][dD][dQ][dV]-NH2) | 16.9
2 | CC[C@@H](C)[C@@H](N)C(=O)N[C@H](CC(=O)O)C(=O)N[C@H](CC(N)=O)C(=O)N[C@@H](C(=O)N[C@H](CCCNC(=N)N)C(=O)N[C@@H](C(=O)N[C@@H](C(=O)N[C@@H](C(=O)N[C@@H](C(=O)N[C@H](CCCCN)C(=O)N[C@@H](C(=O)N[C@H](CC(C)C)C(=O)N[C@@H](C(=O)N[C@H](CCCCN)C(=O)N[C@@H](C(=O)N[C@H](CC(=O)O)C(=O)N[C@H](CC(=O)O)C(=O)N[C@H](CCC(N)=O)C(=O)N[C@@H](C(N)=O)C(C)C)[C@H](C)CC)[C@H](C)O)[C@H](C)CC)[C@H](C)O)[C@H](C)CC)C(C)C)[C@H](C)O)[C@H](C)CC [D-I10] (H-[dI][dD][dN][dI][dR][dT][dV][dI][dT][dK][dI][dL][dT][dK][dI][dD][dD][dQ][dV]-NH2) | 17.6
3 | CC[C@@H](C)[C@@H](N)C(=O)N[C@H](CC(=O)O)C(=O)N[C@H](CC(N)=O)C(=O)N[C@@H](C(=O)N[C@H](CCCNC(=N)N)C(=O)N[C@@H](C(=O)N[C@@H](C(=O)N[C@@H](C(=O)N[C@@H](C(=O)N[C@H](CCCCN)C(=O)N[C@@H](C(=O)N[C@H](CC(C)C)C(=O)N[C@@H](C(=O)N[C@H](CCCCN)C(=O)N[C@@H](C(=O)N[C@H](CC(=O)O)C(=O)N[C@H](CC(=O)O)C(=O)N[C@H](CCC(N)=O)C(=O)N[C@@H](C(N)=O)C(C)C)C(C)C)[C@H](C)O)[C@H](C)CC)[C@H](C)O)[C@H](C)CC)C(C)C)[C@H](C)O)[C@H](C)CC [D-V10] (H-[dI][dD][dN][dI][dR][dT][dV][dI][dT][dK][dI][dL][dT][dK][dV][dD][dD][dQ][dV]-NH2) | 17.4
4 | NVIQISNVLENLRDLLHV-NH2 | 15.6
5 | CC[C@@H](C)[C@@H](NC(=O)[C@@H](CO)NC(=O)[C@@H](CC(N)=O)NC(=O)[C@@H](CC(=O)O)NC(=O)[C@@H](CC(C)C)NC(=O)[C@@H](CCC(=O)O)NC(=O)[C@@H](CC(N)=O)NC(=O)[C@@H](CC(C)C)NC(=O)[C@@H](CCCNC(=N)N)NC(=O)[C@@H](CC(=O)O)NC(=O)[C@@H](CC(C)C)NC(=O)[C@@H](CC(C)C)NC(=O)[C@@H](Cc1c[nH]cn1)NC(=O)[C@H](N)C(C)C)C(=O)N[C@H](CCC(N)=O)C(=O)N[C@@H](C(=O)N[C@@H](C(=O)N[C@H](CC(N)=O)C(N)=O)C(C)C)[C@H](C)CC [D-D79(1), VHLLDRLNELDNSIQIVN] (H-[dV][dH][dL][dL][dD][dR][dL][dN][dE][dL][dD][dN][dS][dI][dQ][dI][dV][dN]-NH2) | 19.4
6 | VQDDVKTLIKTIVTRINDI-NH2 | 20.7
7 | CC[C@@H](C)[C@@H](NC(=O)[C@@H](CO)NC(=O)[C@@H](CC(N)=O)NC(=O)[C@H](NC(=O)[C@@H](CC(C)C)NC(=O)[C@@H](CCC(=O)O)NC(=O)[C@@H](CC(N)=O)NC(=O)[C@@H](CC(C)C)NC(=O)[C@@H](CCCNC(=N)N)NC(=O)[C@@H](CC(=O)O)NC(=O)[C@@H](CC(C)C)NC(=O)[C@@H](CC(C)C)NC(=O)[C@@H](Cc1c[nH]cn1)NC(=O)[C@H](N)C(C)C)C(C)C)C(=O)N[C@H](CCC(N)=O)C(=O)N[C@@H](C(=O)N[C@@H](C(=O)N[C@H](CC(N)=O)C(N)=O)C(C)C)[C@H](C)CC [D-V79] (H-[dV][dH][dL][dL][dD][dR][dL][dN][dE][dL][dV][dN][dS][dI][dQ][dI][dV][dN]-NH2) | 13.6
8 | CC[C@@H](C)[C@@H](N)C(=O)N[C@H](CC(=O)O)C(=O)N[C@H](CC(N)=O)C(=O)N[C@@H](C(=O)N[C@H](CCCNC(=N)N)C(=O)N[C@@H](C(=O)N[C@@H](C(=O)N[C@@H](C(=O)N[C@@H](C(=O)N[C@H](CCCCN)C(=O)N[C@@H](C(=O)N[C@H](CC(C)C)C(=O)N[C@@H](C(=O)N[C@H](CCCCN)C(=O)N[C@H](CC(C)C)C(=O)N[C@H](CC(=O)O)C(=O)N[C@H](CC(=O)O)C(=O)N[C@H](CCC(N)=O)C(=O)N[C@@H](C(N)=O)C(C)C)[C@H](C)O)[C@H](C)CC)[C@H](C)O)[C@H](C)CC)C(C)C)[C@H](C)O)[C@H](C)CC [D-L10] (H-[dI][dD][dN][dI][dR][dT][dV][dI][dT][dK][dI][dL][dT][dK][dL][dD][dD][dQ][dV]-NH2) | 11.8
9 | VQDDAKTLIKTIVTRINDI-NH2 | 88
10 | NVIQISNDLENLRDLLHV-NH2 [D79 (original amino acid)] | 32
11 | CC[C@@H](C)[C@@H](NC(=O)[C@@H](CO)NC(=O)[C@@H](CC(N)=O)NC(=O)[C@@H](CC(C)C)NC(=O)[C@@H](CC(C)C)NC(=O)[C@@H](CCC(=O)O)NC(=O)[C@@H](CC(N)=O)NC(=O)[C@@H](CC(C)C)NC(=O)[C@@H](CCCNC(=N)N)NC(=O)[C@@H](CC(=O)O)NC(=O)[C@@H](CC(C)C)NC(=O)[C@@H](CC(C)C)NC(=O)[C@@H](Cc1c[nH]cn1)NC(=O)[C@H](N)C(C)C)C(=O)N[C@H](CCC(N)=O)C(=O)N[C@@H](C(=O)N[C@@H](C(=O)N[C@H](CC(N)=O)C(N)=O)C(C)C)[C@H](C)CC [D-L79] (H-[dV][dH][dL][dL][dD][dR][dL][dN][dE][dL][dL][dN][dS][dI][dQ][dI][dV][dN]-NH2) | 18.7
12 | CC[C@@H](C)[C@@H](NC(=O)[C@@H](CC(C)C)NC(=O)[C@@H](CCC(=O)O)NC(=O)[C@@H](CC(N)=O)NC(=O)[C@@H](CC(C)C)NC(=O)[C@@H](CCCNC(=N)N)NC(=O)[C@@H](CC(=O)O)NC(=O)[C@@H](CC(C)C)NC(=O)[C@@H](CC(C)C)NC(=O)[C@@H](Cc1c[nH]cn1)NC(=O)[C@H](N)C(C)C)C(=O)N[C@H](CC(N)=O)C(=O)N[C@H](CO)C(=O)N[C@@H](C(=O)N[C@H](CCC(N)=O)C(=O)N[C@@H](C(=O)N[C@@H](C(=O)N[C@H](CC(N)=O)C(N)=O)C(C)C)[C@H](C)CC)[C@H](C)CC [D-I79] (H-[dV][dH][dL][dL][dD][dR][dL][dN][dE][dL][dI][dN][dS][dI][dQ][dI][dV][dN]-NH2) | 9.7
13 | VQDDTKTLIKTIVTRINDI-NH2 [T10 (original amino acid)] | 25.7
14 | NVIQISNALENLRDLLHV-NH2 | 54
15 | NVIQISNILENLRDLLHV-NH2 | 16
16 | VQDDIKTLIKTIVTRINDI-NH2 | 21
17 | NVIQISNLLENLRDLLHV-NH2 | 16

Same assay, conditions: Table 1; L-amino acid peptides; cell line not named in Table 1 (same values in Table 2 are for MCF-7); read-out: IC50 values

Row | Molecule | IC50 [nM]
18 | SRNVIQISNDLENLRDLLHVLAFSKS-NH2 [Full-length LPA-2 (70-95), reference compound] | 33
19 | IQKVQDDTKTLIKTIVTRINDISHTQSVSSKQ-NH2 [Full-length LPA-1 (3-34), reference compound] | 39.1

Same assay, conditions: Table 2; MCF-7 cells; read-out: IC50 values

Row | Molecule | IC50 [nM]
20 | SRNVIQISNDLENLRDLLHVLAFSKS-NH2 [Full-length LPA-2 (70-95), reference compound] | 33
21 | IQKVQDDTKTLIKTIVTRINDISHTQSVSSKQ-NH2 [Full-length LPA-1 (3-34), reference compound] | 39.1
